# Data reported in publication PMC12257535, “Distinct Interactions of Cannabinol and Its Cytochrome P450-Generated Metabolites with Receptors and Sensory Neurons” (Journal of Medicinal Chemistry, 2025).
# Assays:
# NO = NO levels in LPS-stimulated BV2 microglial cells; assay type: cell-based
# Experimental: (§1) The BV2 microglial cells were subjected to the treatment of LPS both in the absence and presence of CBN and its selected metabolites. The seeding density for this assay was 1 × 10^5 cells/well. The cells were initially treated with the molecules for 4 h before being stimulated with LPS (25 ng/mL). The NO assay was performed 24 h after the treatment with LPS. The NO assay was performed according to the manufacturer’s protocol, and NO levels were quantified using nitrate standard curves. For the assay, 50 μL of cell media was used in a 96-well plate, and the absorbance was recorded at 540 nm. All measurements were performed in n = 5.
# CYP3A4 [1] = target: T1, CYP3A4 (Homo sapiens, UniProt P08684, S18F); test: NADPH oxidation assay with CYP3A4 nanodisc and CPR; conditions: triplicate
# T1 sequence (P08684 with tags, fused parts or gaps S18F limits assumed): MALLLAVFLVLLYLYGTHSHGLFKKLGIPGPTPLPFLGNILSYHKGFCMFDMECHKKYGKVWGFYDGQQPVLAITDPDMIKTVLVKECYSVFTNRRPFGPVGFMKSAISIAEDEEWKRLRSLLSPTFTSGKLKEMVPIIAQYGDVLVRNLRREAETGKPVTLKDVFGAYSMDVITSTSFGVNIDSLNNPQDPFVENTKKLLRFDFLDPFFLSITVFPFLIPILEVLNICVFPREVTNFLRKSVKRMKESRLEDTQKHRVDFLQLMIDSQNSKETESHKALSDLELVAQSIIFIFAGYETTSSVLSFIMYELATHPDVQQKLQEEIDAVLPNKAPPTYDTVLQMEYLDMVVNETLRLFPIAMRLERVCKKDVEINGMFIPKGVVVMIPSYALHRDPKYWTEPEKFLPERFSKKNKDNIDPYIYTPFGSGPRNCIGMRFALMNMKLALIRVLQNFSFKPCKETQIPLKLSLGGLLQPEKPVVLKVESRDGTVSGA
# CB1 receptors = target: CB1 receptors; set-up: method as in ref 10 (Rhee et al., citation mark lost in text); conditions: COS-7 cell lines; ref 10 (Rhee et al.); cited from earlier work
# IL-10 = IL-10 ELISA in LPS-stimulated BV2 microglial cells; assay type: cell-based; conditions: LPS-stimulated BV2, 1–5 μM
# Experimental: as §1
# (§2) ELISA assays of IL-6, IL-10 (Item No. 88–7105), and Arginase 1 were performed using the same supernatant with which we had completed the NO and LDH assays. The culture media was collected, and the IL-6 (Thermo Scientific) and Arginase 1 (abcam) assays were performed using the specific monoclonal antibodies as per the manufacturer’s instructions.
# CYP3A4 [2] = target: T1, CYP3A4; test: CYP3A4-mediated CBN metabolism; assay type: in vitro ADME; set-up: polyhistidine (C); made in house; host or cells: E. coli DH5alpha; conditions: targeted and untargeted metabolomics
# CB2 receptor = CB2 receptor (Homo sapiens, UniProt P34972); test: G protein nanoBRET assay, antagonist mode, CB2 receptor; conditions: 50 μM after pretreatment with 1 μM CP-55940
# Sequence of CB2 receptor (P34972 whole entry): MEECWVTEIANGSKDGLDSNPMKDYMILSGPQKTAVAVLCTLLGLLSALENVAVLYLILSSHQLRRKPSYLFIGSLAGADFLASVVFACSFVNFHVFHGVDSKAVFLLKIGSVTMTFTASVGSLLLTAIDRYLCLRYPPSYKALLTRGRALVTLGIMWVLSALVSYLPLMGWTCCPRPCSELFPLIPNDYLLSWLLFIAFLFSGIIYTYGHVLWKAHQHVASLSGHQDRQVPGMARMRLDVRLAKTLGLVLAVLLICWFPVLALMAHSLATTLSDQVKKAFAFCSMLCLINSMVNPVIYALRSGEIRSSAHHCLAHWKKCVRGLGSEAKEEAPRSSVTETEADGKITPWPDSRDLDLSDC
# [3] = In vivo metabolism of CBN in female mice, plasma levels by targeted LC/MS/MS; set-up: species or system C57BL/6 mice
# Experimental: Initially dissolved in ethanol, CBN was combined with a volume of Tween 80, constituting 6% of the total solution volume for injection. Ethanol was eliminated via vacuum evaporation, and saline was added to prepare a 4 mg/mL solution. CBN (20 mg/kg) or vehicle was administered to C57BL/6 mice intravenously (IV) through the retro-orbital sinus or intraperitoneally (IP) at the lower right quadrant of the abdomen. Animals were euthanized at 30- or 120 min postinjection. Blood samples, collected via cardiac puncture into heparin tubes, underwent cold centrifugation at 4500 rpm for 15 min to isolate plasma. Plasma and whole liver samples were flash-frozen at −80 °C for subsequent analysis. Our decision to use female mice for this experiment was based on the availability of age-matched mice in the colony at the time of the experiment.
# Mice were anaesthetized with a 3% inhalant dose of isoflurane until their respiratory rate decreased to 50% of baseline (i.e., 40–60 breaths/min) and the righting reflex was abolished. Mice were subsequently removed from the induction chamber and laid on their side. Using the index finger and thumb of the nondominant hand, the skin above and below the eye was retracted until a slight protrusion from the socket was noted. A 29G1/2 needle was inserted, bevel down, into the medial canthus at an approximate 45-degree angle until slight resistance was noted. Volume was slowly infused at a rate of 15uL/second. The needle was subsequently removed from the eye socket, and ophthalmic ointment was added.
# Animals were gently restrained by scruff, and the injection site at the lower right quadrant of the abdomen was identified. The needle was inserted at a 60-degree angle to the body, and the plunger was lightly withdrawn to ensure the needle was not in contact with viscera or organs before dispensing volume.
# 200 μL plasma samples were collected and used for extraction using 1 mL of Hexane: Ethyl acetate (8:2 v/v) following a similar protocol described above.
# Samples were analyzed using the Sciex QTrap 6500+ system (Framingham, MA) with Waters Acquity I- class plus UPLC. Software Analyst 1.7.1 was used for data acquisition.
# The LC separation was performed on a Waters Acquity UPLC BEH column (2.1 × 100 mm, 1.7 μm) with mobile phase A (0.1% formic acid in water) and mobile phase B (0.1% formic acid in acetonitrile). The flow rate was 0.5 mL/min unless noted otherwise. The linear gradient was as follows: 0–0.5 min, 70%A; 2 min, 20%A; 4–4.2 min, 0%A; 4.21–5.2 min, 0%A (0.8 mL/min); 5.3–6.9 min, 70%A. The autosampler was set at 10 °C, and the column was kept at 50 °C. The injection volume was 5 μL.
# Mass spectra were acquired under positive electrospray ionization (ESI) with the ion spray voltage of 4500 V. The source temperature was 500 °C. The curtain gas, ion source gas 1, and ion source gas 2 were 32, 50, and 70 psi, respectively. Multiple reaction monitoring (MRM) was used for quantitation with the MRM transition of CBN (m/z 311.2 → m/z 269.1), CBN-1′–OH (m/z 327.2 → m/z 253.1), CBN-11-OH (m/z 327.2 → m/z 128.1), CBN-p-quinone (m/z 325.2 → m/z 283.1) and EPEA-d4 as internal standard (m/z 350.3 → m/z 66.1).
# TRP channel = test system: TRP channel; set-up: method as in ref 11 (De Petrocellis et al., citation mark lost in text); conditions: stimulation by 1 mM carvacrol; ref 11 (De Petrocellis et al.); read-out: IC50, prevention of intracellular calcium increase upon carvacrol; cited from earlier work
# DRG neurons = test: Calcium responses of cultured DRG sensory neurons; assay type: cell-based; conditions: cultured mouse DRG neurons, 50 μM × 15 s
# Experimental: 9 CBN and 11-OH CBN activate DRG neurons with similar response magnitudes but differ in their percentage of neurons activated and time to peak response. Calcium response traces of representative cultured mouse DRG neurons following application of CBN (A) and 11-OH CBN (B) 50 μM × 15 s (arrow). […] Mean value ± SEM (CBN: n = 59; 11-OH CBN: n = 29, two-tailed t test, Prism GraphPad).
# TRPV4 = test system: TRPV4; set-up: method as in ref 11 (De Petrocellis et al., citation mark lost in text); conditions: ref 11 (De Petrocellis et al.); cited from earlier work
# CB2 receptors = target: CB2 receptors; set-up: method as in ref 10 (Rhee et al., citation mark lost in text); conditions: COS-7 cell lines; ref 10 (Rhee et al.); cited from earlier work
# IL-6 = IL-6 ELISA in LPS-stimulated BV2 microglial cells; assay type: cell-based; conditions: LPS-stimulated BV2, 5 μM
# Experimental: as §1, §2
# Arginase 1 = Arginase 1 ELISA in LPS-stimulated BV2 microglial cells; assay type: cell-based
# Experimental: as §1, §2
# CB1 receptor = CB1 receptor (Homo sapiens, UniProt P21554); test: G protein nanoBRET assay, antagonist mode, CB1 receptor; conditions: 50 μM after pretreatment with 1 μM CP-55940
# Sequence of CB1 receptor (P21554 whole entry): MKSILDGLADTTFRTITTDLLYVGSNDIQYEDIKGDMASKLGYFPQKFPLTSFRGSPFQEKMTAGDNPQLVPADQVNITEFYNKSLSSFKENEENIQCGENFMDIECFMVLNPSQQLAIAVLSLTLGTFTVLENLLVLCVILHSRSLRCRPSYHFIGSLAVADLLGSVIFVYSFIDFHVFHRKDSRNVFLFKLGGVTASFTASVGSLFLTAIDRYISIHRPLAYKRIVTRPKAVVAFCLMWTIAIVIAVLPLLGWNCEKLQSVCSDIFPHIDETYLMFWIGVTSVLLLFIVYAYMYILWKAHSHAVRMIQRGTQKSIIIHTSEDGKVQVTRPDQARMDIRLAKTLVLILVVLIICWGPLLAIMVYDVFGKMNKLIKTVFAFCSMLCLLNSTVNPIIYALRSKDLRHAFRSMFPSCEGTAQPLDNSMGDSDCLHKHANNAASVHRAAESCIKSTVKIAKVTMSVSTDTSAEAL
compound,measurement,setting,value
"CCCCCc1cc(O)c2c(c1)OC(C)(C)c1ccc(C)cc1-2 [CBN, Cannabinol]",production of NO,"NO; LPS-stimulated BV2, 5 μM",slightly lower production of NO
same,change in NO levels compared to cells with only LPS treatment,"NO; LPS-stimulated BV2, 1, 2.5 and 5 μM",no detectable significant (ns) change
same,rate of NADPH oxidation in the presence of the compound,CYP3A4 [1],249.731±14625 nmol/min/nmol
same,Ki,CB1 receptors,211 ± 35 nM
same,IL-10 levels,IL-10,concentration-dependent increase in IL-10 levels
same,metabolism of CBN by CYP3A4,CYP3A4 [2],did not metabolize
same,inhibition of CB2 receptor,CB2 receptor,partial inhibition
same,reduction of plasma level between 0.5 and 2 h,[3]; IP administration of CBN,3 fold
same,reduction of plasma level between 0.5 and 2 h,[3]; IV administration of CBN,~3 fold
same,"amount of CBN available in plasma, intravenous relative to intraperitoneal","[3]; female mice, CBN 20 mg/kg, plasma",3.0 times
same,IC50,TRP channel,9400 ± 100 nM
same,Ca2+ response (%),DRG neurons,38.9 ± 4.3%
same,DRG neuron activation (%),DRG neurons,29.3 ± 4.9%
same,Response Time,DRG neurons,40.7 ± 4.8 s
same,percentage of DRG neurons activated,DRG neurons,29.3 ± 4.9%
same,time to peak response,DRG neurons,40.7 ± 4.8 s
same,efficacy in activating TRPV4 compared to ionomycin,TRPV4,15.3–26.1%
same,Ki,CB2 receptors,126 ± 26 nM
same,IL-6 levels,IL-6,reduction in IL-6 levels
same,Arginase1 levels,Arginase 1,slight increase in Arginase1 levels
same,inhibition of CB1 activation,CB1 receptor,significant but partial inhibition
